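Each compound was tested at five concentrations against cells in 96-well plates for 48 hours. Abbreviation: GI50, concentration required for 50% inhibition of growth.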 Activity calls are given as the source filed them. No stated cut-off is given here; in the data, active = GI50 up to about 1.1 µM and inactive = higher.
How the values were obtained:
Test in all cases: inhibition of tumour cell growth, NCI panel, 48 h
[1] = tested on: EKVX
[2] = tested on: Hs-578T
[3] = tested on: K562
[4] = tested on: SK-MEL-5
[5] = tested on: NCI/ADR-RES
[6] = tested on: SNB-75
[7] = tested on: RPMI-8226
[8] = tested on: SF-268
[9] = tested on: SR
[10] = tested on: MDA-MB-435
[11] = tested on: NCI-H23
[12] = tested on: Malme-3M
[13] = tested on: A498
[14] = tested on: CAKI-1
[15] = tested on: SN12C
[16] = tested on: UACC-62
[17] = tested on: KM12
[18] = tested on: MOLT-4
[19] = tested on: SNB-19
[20] = tested on: NCI-H226
[21] = tested on: SK-MEL-2
[22] = tested on: UACC-257
[23] = tested on: NCI-H522
[24] = tested on: SW-620
[25] = tested on: LOX IMVI
[26] = tested on: SF-539
[27] = tested on: CCRF-CEM
[28] = tested on: DU-145
[29] = tested on: UO-31
[30] = tested on: ACHN
[31] = tested on: HCT-15
[32] = tested on: COLO 205
[33] = tested on: MDA-N
[34] = tested on: IGROV-1
[35] = tested on: M14
[36] = tested on: OVCAR-4
[37] = tested on: T47D
[38] = tested on: OVCAR-3
[39] = tested on: SK-MEL-28
[40] = tested on: 786-0
[41] = tested on: MCF7
[42] = tested on: HCT-116
[43] = tested on: BT-549
[44] = tested on: OVCAR-8
[45] = tested on: HOP-92
[46] = tested on: OVCAR-5
[47] = tested on: PC-3
[48] = tested on: A549
[49] = tested on: HL-60
[50] = tested on: RXF 393
[51] = tested on: HT-29
[52] = tested on: U-251
[53] = tested on: HOP-62
[54] = tested on: NCI-H460
[55] = tested on: SF-295
[56] = tested on: MDA-MB-231
[57] = tested on: SK-OV-3
[58] = tested on: TK-10
[59] = tested on: HCC 2998

## COc1cc(S(=O)(=O)Nc2ccc(-c3csc(N4C(=O)C(C)SC4c4ccccc4)n3)cc2)ccc1Cl (stereo not drawn)
[1]
  GI50: 7.52 µM (inactive)
[2]
  GI50: 0.794 µM (active)
[3]
  GI50: 30.6 µM (inactive)
[4]
  GI50: 19.5 µM (inactive)
[5]
  GI50: > 100 µM (inactive)
[6]
  GI50: 0.0555 µM (active)
[7]
  GI50: 38.4 µM (inactive)
[8]
  GI50: 19.7 µM (inactive)
[9]
  GI50: 25 µM (inactive)
[10]
  GI50: 24.6 µM (inactive)
[11]
  GI50: 51.4 µM (inactive)
[12]
  GI50: 80.4 µM (inactive)
[13]
  GI50: 58.6 µM (inactive)
[14]
  GI50: > 100 µM (inactive)
[15]
  GI50: 94.2 µM (inactive)
[16]
  GI50: 21.4 µM (inactive)
[17]
  GI50: 0.082 µM (active)
[18]
  GI50: 33 µM (inactive)
[19]
  GI50: 35.7 µM (inactive)
[20]
  GI50: 0.0853 µM (active)
[21]
  GI50: 0.979 µM (active)
[22]
  GI50: 37.4 µM (inactive)
[23]
  GI50: 33.8 µM (inactive)
[24]
  GI50: 35.4 µM (inactive)
[25]
  GI50: 10.1 µM (inactive)
[26]
  GI50: 13.4 µM (inactive)
[27]
  GI50: 40 µM (inactive)
[28]
  GI50: 40.2 µM (inactive)
[29]
  GI50: > 100 µM (inactive)
[30]
  GI50: > 100 µM (inactive)
[31]
  GI50: > 100 µM
[32]
  GI50: 27.2 µM (inactive)
[33]
  GI50: 19.5 µM (inactive)
[34]
  GI50: 17.5 µM (inactive)
[35]
  GI50: > 100 µM (inactive)
[36]
  GI50: 39.6 µM (inactive)
[37]
  GI50: 15.2 µM (inactive)
[38]
  GI50: > 100 µM (inactive)
[39]
  GI50: 24.7 µM (inactive)
[40]
  GI50: 20 µM (inactive)
[41]
  GI50: 17.9 µM (inactive)
[42]
  GI50: 34.8 µM (inactive)
[43]
  GI50: 20.9 µM (inactive)
[44]
  GI50: > 100 µM (inactive)
[45]
  GI50: 31.9 µM (inactive)
[46]
  GI50: > 100 µM (inactive)
[47]
  GI50: 19.9 µM (inactive)
[48]
  GI50: > 100 µM (inactive)
[49]
  GI50: 21.1 µM (inactive)
[50]
  GI50: 15.5 µM (inactive)
[51]
  GI50: 11.8 µM (inactive)

## Clc1ccc(C2=NCON=C2c2ccc(Cl)cc2)cc1
[1]
  GI50: 15.1 µM (inactive)
[2]
  GI50: 13.8 µM (inactive)
[3]
  GI50: 23.9 µM (inactive)
[4]
  GI50: 16.6 µM (inactive)
[5]
  GI50: 21.5 µM (inactive)
[6]
  GI50: 24.8 µM (inactive)
[7]
  GI50: 16.8 µM (inactive)
[8]
  GI50: 19.7 µM (inactive)
[11]
  GI50: 16.8 µM (inactive)
[12]
  GI50: 14.5 µM (inactive)
[52]
  GI50: 18.3 µM (inactive)
[14]
  GI50: 21.6 µM (inactive)
[15]
  GI50: 19 µM (inactive)
[16]
  GI50: 18.9 µM (inactive)
[17]
  GI50: 15.5 µM (inactive)
[18]
  GI50: 15.9 µM (inactive)
[19]
  GI50: 28 µM (inactive)
[53]
  GI50: 25.6 µM (inactive)
[20]
  GI50: 14.5 µM (inactive)
[21]
  GI50: 19.9 µM (inactive)
[22]
  GI50: 25.1 µM (inactive)
[54]
  GI50: 19.7 µM (inactive)
[24]
  GI50: 19.9 µM (inactive)
[25]
  GI50: 15.1 µM (inactive)
[26]
  GI50: 15.3 µM (inactive)
[27]
  GI50: 24.3 µM (inactive)
[28]
  GI50: 30.5 µM (inactive)
[29]
  GI50: 15.7 µM (inactive)
[30]
  GI50: 19 µM (inactive)
[31]
  GI50: 19.4 µM
[55]
  GI50: 16.6 µM (inactive)
[32]
  GI50: 16.3 µM (inactive)
[56]
  GI50: 18.1 µM (inactive)
[57]
  GI50: 14.5 µM (inactive)
[33]
  GI50: 18.8 µM (inactive)
[36]
  GI50: 27.4 µM (inactive)
[37]
  GI50: 0.71 µM (active)
[38]
  GI50: 15.8 µM (inactive)
[58]
  GI50: 23.9 µM (inactive)
[40]
  GI50: 19.7 µM (inactive)
[41]
  GI50: 25.6 µM (inactive)
[42]
  GI50: 13.6 µM (inactive)
[43]
  GI50: 19.5 µM (inactive)
[44]
  GI50: 25.6 µM (inactive)
[45]
  GI50: 18.4 µM (inactive)
[46]
  GI50: 20.1 µM (inactive)
[47]
  GI50: 18.2 µM (inactive)
[59]
  GI50: 15.2 µM (inactive)
[48]
  GI50: 31.3 µM (inactive)
[49]
  GI50: 14.5 µM (inactive)
[50]
  GI50: 18.7 µM (inactive)
[51]
  GI50: 13.6 µM (inactive)

## CNc1nc(OC)c2c(n1)n(C)c[n+]2C [HETEROMINE B]
[1]
  GI50: > 100 µM (inactive)
[2]
  GI50: 31.6 µM (inactive)
[3]
  GI50: > 100 µM (inactive)
[4]
  GI50: > 100 µM (inactive)
[5]
  GI50: > 100 µM (inactive)
[6]
  GI50: > 100 µM (inactive)
[7]
  GI50: > 100 µM (inactive)
[8]
  GI50: > 100 µM (inactive)
[10]
  GI50: > 100 µM (inactive)
[11]
  GI50: > 100 µM (inactive)
[12]
  GI50: > 100 µM (inactive)
[52]
  GI50: 45.7 µM (inactive)
[13]
  GI50: > 100 µM (inactive)
[14]
  GI50: > 100 µM (inactive)
[15]
  GI50: > 100 µM (inactive)
[16]
  GI50: > 100 µM (inactive)
[17]
  GI50: > 100 µM (inactive)
[18]
  GI50: > 100 µM (inactive)
[19]
  GI50: > 100 µM (inactive)
[53]
  GI50: > 100 µM (inactive)
[20]
  GI50: > 100 µM (inactive)
[21]
  GI50: 53.3 µM (inactive)
[22]
  GI50: > 100 µM (inactive)
[54]
  GI50: > 100 µM (inactive)
[23]
  GI50: 31.7 µM (inactive)
[24]
  GI50: > 100 µM (inactive)
[25]
  GI50: > 100 µM (inactive)
[26]
  GI50: > 100 µM (inactive)
[27]
  GI50: > 100 µM (inactive)
[28]
  GI50: > 100 µM (inactive)
[29]
  GI50: > 100 µM (inactive)
[30]
  GI50: > 100 µM (inactive)
[31]
  GI50: > 100 µM
[55]
  GI50: > 100 µM (inactive)
[32]
  GI50: > 100 µM (inactive)
[56]
  GI50: > 100 µM (inactive)
[57]
  GI50: > 100 µM (inactive)
[33]
  GI50: > 100 µM (inactive)
[34]
  GI50: > 100 µM (inactive)
[35]
  GI50: > 100 µM (inactive)
[37]
  GI50: > 100 µM (inactive)
[38]
  GI50: 62.7 µM (inactive)
[58]
  GI50: > 100 µM (inactive)
[39]
  GI50: > 100 µM (inactive)
[40]
  GI50: > 100 µM (inactive)
[42]
  GI50: > 100 µM (inactive)
[43]
  GI50: > 100 µM (inactive)
[44]
  GI50: > 100 µM (inactive)
[45]
  GI50: 41.2 µM (inactive)
[46]
  GI50: > 100 µM (inactive)
[47]
  GI50: > 100 µM (inactive)
[48]
  GI50: 73.8 µM (inactive)
[49]
  GI50: > 100 µM (inactive)
[50]
  GI50: > 100 µM (inactive)
[51]
  GI50: > 100 µM (inactive)
